Results taken from BindingDB's records for patent WO2022109573 (VERTEX PHARMACEUTICALS INCORPORATED, 2022).

Biological target: T1, Cystic fibrosis transmembrane conductance regulator [1-507,509-1480] (Human, UniProt P13569, DEL508-508)
T1 construct: 1-507,509-1480
Experiment: Chamber Assay of CFTR-mediated short-circuit currents
Protocol: ssing chamber experiments were performed using human bronchial epithelial (HBE) cells derived from CF subjects heterozygous for F508del and a minimal function CFTR mutation (F508del/MF-HBE) and cultured as previously described (Neuberger T, Burton B, Clark H, Van Goor F Methods Mol Biol 2011:741:39-54). After four days the apical media was removed, and the cells were grown at an air liquid interface for >14 days prior to use. […] To isolate the CFTR-mediated short-circuit (ISC) current, F508del/MF-HBE grown on Costar Snapwell cell culture inserts were mounted in an Ussing chamber and the transepithelial ISC was measured under voltage-clamp recording conditions (Vhold= 0 mV) at 37 °C. The basolateral solution contained (in mM) 145 NaCl, 0.83 K2HPO4, 3.3 KH2PO4, 1.2 MgCl2, 1.2 CaCl2, 10 Glucose, 10 HEPES (pH adjusted to 7.4 with NaOH) and the apical solution contained (in mM) 145 NaGluconate, 1.2 MgCl2, 1.2 CaCl2, 10 glucose, 10 HEPES (pH adjusted to 7.4 with NaOH) and 30 µM amiloride to block the epithelial sodium channel. Forskolin (20 µM) was added to the apical surface to activate CFTR, followed by apical addition of a CFTR inhibitor cocktail consisting of BPO, GlyH-101 and CFTR inhibitor 172 (each at 20 µM final assay concentration) to specifically isolate CFTR currents. The CFTR-mediated ISC (µA/cm2) for each condition was determined from the peak forskolin response to the steady-state current following inhibition.

T1 sequence (P13569 as listed by the source): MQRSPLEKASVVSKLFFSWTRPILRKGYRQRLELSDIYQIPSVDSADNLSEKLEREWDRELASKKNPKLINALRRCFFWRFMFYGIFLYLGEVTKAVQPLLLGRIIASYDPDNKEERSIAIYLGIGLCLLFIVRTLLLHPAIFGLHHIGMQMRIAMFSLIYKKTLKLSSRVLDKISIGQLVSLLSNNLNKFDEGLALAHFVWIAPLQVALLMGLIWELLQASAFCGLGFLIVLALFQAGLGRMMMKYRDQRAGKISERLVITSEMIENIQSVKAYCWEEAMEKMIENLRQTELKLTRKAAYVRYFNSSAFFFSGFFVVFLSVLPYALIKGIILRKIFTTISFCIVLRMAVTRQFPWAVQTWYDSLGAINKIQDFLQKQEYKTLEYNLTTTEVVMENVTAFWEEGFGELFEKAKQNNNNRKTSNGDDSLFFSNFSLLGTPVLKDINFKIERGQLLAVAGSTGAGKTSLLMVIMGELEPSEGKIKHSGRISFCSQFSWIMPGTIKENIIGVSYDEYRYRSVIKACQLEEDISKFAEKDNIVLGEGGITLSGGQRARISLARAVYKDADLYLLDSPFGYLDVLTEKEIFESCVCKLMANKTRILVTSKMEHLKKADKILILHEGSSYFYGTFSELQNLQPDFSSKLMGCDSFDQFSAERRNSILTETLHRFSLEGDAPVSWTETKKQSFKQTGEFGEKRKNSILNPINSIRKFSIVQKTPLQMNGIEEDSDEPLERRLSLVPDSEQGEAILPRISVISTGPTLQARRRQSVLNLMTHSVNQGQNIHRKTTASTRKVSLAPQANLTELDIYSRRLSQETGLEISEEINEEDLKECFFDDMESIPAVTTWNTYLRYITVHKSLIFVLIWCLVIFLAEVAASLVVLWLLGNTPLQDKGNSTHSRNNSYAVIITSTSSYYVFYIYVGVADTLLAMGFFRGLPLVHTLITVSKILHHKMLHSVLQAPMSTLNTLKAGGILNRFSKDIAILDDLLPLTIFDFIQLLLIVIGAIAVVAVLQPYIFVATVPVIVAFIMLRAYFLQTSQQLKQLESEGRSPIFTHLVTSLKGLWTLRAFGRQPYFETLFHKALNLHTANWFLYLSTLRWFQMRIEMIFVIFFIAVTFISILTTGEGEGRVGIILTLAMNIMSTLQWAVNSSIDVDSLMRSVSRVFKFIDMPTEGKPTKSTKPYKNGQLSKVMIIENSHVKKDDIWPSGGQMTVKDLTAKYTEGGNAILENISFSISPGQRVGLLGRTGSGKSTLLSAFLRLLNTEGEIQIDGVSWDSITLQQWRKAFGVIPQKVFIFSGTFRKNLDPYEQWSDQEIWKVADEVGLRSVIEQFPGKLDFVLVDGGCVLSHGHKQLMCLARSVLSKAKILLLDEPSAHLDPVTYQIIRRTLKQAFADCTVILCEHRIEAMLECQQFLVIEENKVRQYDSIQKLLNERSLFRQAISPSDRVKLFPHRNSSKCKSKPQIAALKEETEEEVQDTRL

EC50, < 500 nM:
CC1(O)CCCCC[C@@H]2CCCN2c2nc(c(N)cc2C(F)(F)F)C2=NN=C1O2 (stereo partly specified) [WO2022109573, Compound 45]
Nc1cc(C(F)(F)F)c2nc1-c1nnc(o1)C(O)CCCCC[C@@H]1CCCN21 (stereo partly specified) [WO2022109573, Compound 21]
Nc1cc(C(F)(F)F)c2nc1-c1nnc(o1)C(O)(C(F)(F)F)CCCC(=O)N1CCN2CC1 (stereo unspecified) [WO2022109573, Compound 37]
CN1CCCCCCC(O)(C(F)(F)F)C2=NN=C(O2)c2nc1c(C(F)(F)F)cc2N (stereo unspecified) [WO2022109573, Compound 19]
CCOC(=O)CN1CCCCCCC(O)(C(F)(F)F)C2=NN=C(O2)c2nc1c(C(F)(F)F)cc2N (stereo unspecified) [WO2022109573, Compound 46]
Nc1cc(C(F)(F)F)c2nc1-c1nnc(o1)[C@@](O)(C(F)(F)F)CCCCCC[C@H]1CCCN21 [WO2022109573, Compound 24]
Nc1cc(C(F)(F)F)c2nc1-c1nnc(o1)[C@](O)(C(F)(F)F)CCCCC[C@@H]1CCCN21 [WO2022109573, Compound 4]
Nc1cc(C(F)(F)F)c2nc1-c1nnc(o1)C(=O)CCCCC[C@@H]1CCCN21 [WO2022109573, Compound 36]
Nc1cc(C(F)(F)F)c2nc1-c1nnc(o1)[C@@](O)(C(F)(F)F)CCCCC1CCN2C1 (stereo partly specified) [WO2022109573, Compound 8]
CC1(C)CC2CCCCCC(O)(C(F)(F)F)C3=NN=C(O3)c3nc(c(C(F)(F)F)cc3N)N2C1 (stereo unspecified) [WO2022109573, Compound 29]
Nc1cc(C(F)(F)F)c2nc1-c1nnc(o1)[C@@](O)(C(F)(F)F)CCCC[C@@H]1CCCN21 [WO2022109573, Compound 17]
Nc1cc(C(F)(F)F)c2nc1-c1nnc(o1)C(O)(C(F)(F)F)CCCC[C@@H]1CCCN21 (stereo partly specified) [WO2022109573, Compound 32]
Nc1cc(C(F)(F)F)c2nc1-c1nnc(o1)/C(=N\O)CCCCC[C@@H]1CCCN21 [WO2022109573, Compound 31]
CNc1cc(C(F)(F)F)c2nc1-c1nnc(o1)[C@@](O)(C(F)(F)F)CCCCC[C@@H]1CCCN21 [WO2022109573, Compound 13]
Nc1cc(C(F)(F)F)c2nc1-c1nnc(o1)C(O)(C(F)(F)F)CCCCCCN2CCO (stereo unspecified) [WO2022109573, Compound 41]
Nc1cc(C(F)(F)F)c2nc1-c1nnc(o1)[C@](O)(C(F)(F)F)CCCCCC[C@H]1CCCN21 [WO2022109573, Compound 25]
CCNc1cc(C(F)(F)F)c2nc1-c1nnc(o1)[C@@](O)(C(F)(F)F)CCCCC[C@@H]1CCCN21 [WO2022109573, Compound 14]
Nc1cc(C(F)(F)F)c2nc1-c1nnc(o1)[C@@](O)(C(F)(F)F)CCCC[C@H]1CCCN21 [WO2022109573, Compound 18]
Nc1cc(C(F)(F)F)c2nc1-c1nnc(o1)[C@](O)(C(F)(F)F)CCCCC[C@H]1CCCN21 [WO2022109573, Compound 7]
Nc1cc(C(F)(F)F)c2nc1-c1nnc(o1)[C@](O)(C(F)(F)F)CCCCC1CCN2C1 (stereo partly specified) [WO2022109573, Compound 9]
Nc1cc(C(F)(F)F)c2nc1-c1nnc(o1)[C@@](O)(C(F)(F)F)CCCCCC[C@@H]1CCCN21 [WO2022109573, Compound 23]
